The values below come from patent US20010012631A1, “Plant clonal lines and plants having elevated secondary metabolite levels” (University of Massachusetts Medical Center, a Massachusetts …, priority 1997, published 2001).

Values joined by “and” are separate entries in the source; they are usually repeats but may differ in a detail not shown here. Equal values may be shown once. Read-outs that look alike come from different tables or passages of the source.

For one experiment, the system named is oregano clonal lines. As to the kind of experiment: Selection for A2C tolerance: RA content of about 100 oregano clonal lines. Format: cell-based. Conditions: small fraction of about 100 oregano lines, 200 μM A2C, 30 days. The method, then:
(§1) Samples of Pseudomonas-treated and untreated control shoots from each line were assayed for rosmarinic acid content and proline content. Rosmarinic acid was extracted from 50 mg of fresh shoot tissue using 2 ml of 50% (v/v) methanol and incubating for 1 hour at 55° C. One ml of the methanol extract was diluted 1:18 and the absorbance of the diluted extract was measured at 333 nm in a Genesys spectrophotometer (Spectronic Instruments, Rochester, N.Y.). The concentration of RA in the extract was calculated using an extinction coefficient of ε333=19,000 τmol^−1cm^−1. Values for the concentration of RA for each treatment/clonal line shown in the Tables and Figures of this application are the average of at least 5 separate extracts. Total rosmarinic acid content was expressed as % g/g fresh weight (FW) of tissue.
About 100 oregano clonal lines are initiated as described in Example 1. Lines are maintained on MS medium containing BAP as described in Example 1. At the end of a subculture cycle, 50 shoot propagules of each clonal line are transferred to half-strength hormone-free MS medium containing 200 μM A2C. Propagules are then cultured for 30 days as described in Example 1, and assayed for RA content as described in Example 1. Total phenolic content is measured as described in U.S. application Ser. No. 08/771,241, filed Dec. 20, 1996, incorporated herein by reference.

For experiment [1], the system named is rosemary clonal line R-35. Briefly: RA content of shoot propagules, rosemary clonal line R-35. The format is cell-based. To be noted: 30 to 45 days, ± SD. The method, then: as §1
(§2) Three clonal thyme lines and five rosemary clonal lines were isolated and maintained in culture as described in U.S. application Ser. No. 08/771,241, filed Dec. 20, 1996 and incorporated herein by reference.
(§3) Individual shoot propagules of each clonal line were transferred to half-strength hormone-free MS media supplemented with A2C and cultured for 30 to 45 days. RA content and morphological abnormalities were determined at the end of the culture period as described in Example 1.

The test system of experiment [2] is rosemary clonal line R-16. As to the kind of experiment: RA content of shoot propagules, rosemary clonal line R-16. The format is cell-based. Conditions: 30 to 45 days. The method, then:
as §1, §2, §3

In another experiment the test system is oregano clonal line 0-5. Format: cell-based. Conditions: for RA Levels: 30 days (Example 3). As to the method: (§4) A mucoid, non-pathogenic Pseudomonas sp. strain was isolated as a contaminant of an oregano shoot culture. This Pseudomonas sp. was termed strain F. This strain was used in selecting Pseudomonas tolerant clonal lines. Strain F was grown on yeast extract-mannitol medium (Difco, Inc., Detroit, Mich.) until the inoculum density was about 10^9 colony forming units/mL. The bacterial suspension was diluted 100-fold in sterile distilled water and about 2.5 ml was dispensed into petri plates. Individual shoots of each clonal line at about 30 days of subculture were removed by cutting at the basal end and then inoculated by dipping the cut end into the diluted bacterial suspension. Inoculated shoots were then transferred to half-strength hormone-free MS medium, which induces root formation, and incubated in a growth room at 23° C., on a 16/8 hours day/night schedule. About 40 shoots of each clone were inoculated. Control shoots of each clonal line were transferred to the same medium, but were not exposed to bacteria.
as §1
(§5) Individual shoot tissue propagules of each clonal line were transferred to half strength hormone-free MS medium supplemented with 100 μM A2C. RA content, proline content, and morphological abnormalities were determined as described in Example 1.
(§6) Shoot tissue from oregano lines 0-4 and 0-5 was also cultured in the presence of A2C for 30 days. Samples of treated and control shoots were then assayed for RA content on a fresh weight basis and for morphological abnormalities.
(§7) Individual shoot tissue propagules of each clonal line were transferred to half strength hormone-free MS medium supplement with A2C. RA content and morphological abnormalities were determined as described in Example 1.

Experiment [3] relates to oregano clonal line 0-4. Format: cell-based. To be noted: ± SD; for RA Levels: 30 days (Example 3). The method, then:
as §4, §1, §5, §6, §7

Another experiment relates to thyme clonal line M-3. Briefly: RA content of shoot propagules, thyme clonal line M-3. The format is cell-based. To be noted: 30 to 45 days. The method, then: as §1, §2, §3
For experiment [4], the system named is regenerated plants of oregano clone 0-1 and five tolerant clones. Briefly: Field treatment: total phenolic content of leaf tissue of regenerated oregano plants. Format: in vivo. Conditions: field plants sprayed with solution of A2C about 50 μm, Nonidet P40, EMC about 0.5% w/v; leaf tissue after 7 days; fresh weight and dry weight basis. As to the method: About 100 regenerated plants of oregano clone 0-1, and the five tolerant clones of Example 7 are removed from a greenhouse, and planted outdoors in a field during the spring, and summer growing season. Plantings are carried out using a randomized block design. Plants are fertilized weekly, but are not irrigated. About 7 days before flower emergence, half of the plants of each line are sprayed with an aqueous solution comprising A2C, Nonidet P40™, and EMC prepared from strain F. A2C is present at about 50 μm, and EMC is present at about 0.5% w/v. Each plant receives about 1 to 2 ml on the upper surface of the leaves. The remaining control plants are treated by spraying an aqueous solution that contains no A2C and no EMC. Spraying is carried out such that there is little or no carryover to adjacent plants.
After 7 days, leaf tissue from A2C-treated and control plants is harvested, and analyzed for total phenolic content, and RA content as described in Example 7. […] The plant-to-plant variation among A2C-treated plants of each line is about 5% to about 15%.

For experiment [5], the system named is oregano clonal line 0-4. Briefly: Morphological abnormalities / tolerance of cultured shoots, oregano line 0-4. To be noted: line 0-4 cultured in the presence of 100 μM azetidine-2-carboxylic acid. The format is cell-based. As to the method: Pseudomonas tolerance of Pseudomonas-treated shoots was determined by visual observation with a stereomicroscope (Olympus-SZ40, Tokyo, Japan) at a magnification of 34X. Cultured shoots were evaluated for morphological abnormalities, including malformation, necrosis, and chlorophyll deficiency. The response of individual tissue propagules to Pseudomonas contact was similar within each line, i.e., there was little or no variation among tissue propagules within each line.
as §6

A further experiment deals with rosemary clonal line R-7. Briefly: RA content of shoot propagules, rosemary clonal line R-7. The format is cell-based. Conditions: 30 to 45 days, ± SD. The method, then:
as §1, §2, §3

Experiment [6] relates to rosemary clonal line R-15. Briefly: RA content of shoot propagules, rosemary clonal line R-15. Format: cell-based. Conditions: 30 to 45 days. The method, then:
as §1, §2, §3

Regarding `O=C(O)C1CCN1` (stereo not shown) [A2C, azetidine-2-carboxylic acid], the “increase in RA content on a fresh weight basis vs tissue cultured in the absence of A2C” value with oregano clonal lines is recorded as “at least 2 fold”. Moreover, the “RA Levels” value is recorded as 12.1 ± 1.4 mg/g FW in experiment [1] (rosemary R-35, A2C 100 μM); 10.9 ± 0.9 mg/g FW in experiment [1] (rosemary R-35, A2C 200 μM); 10.4 ± 1.9 mg/g FW in experiment [2] (rosemary R-16, A2C 100 μM, ± SD); “inhibited” in experiment [2] (rosemary R-16, A2C 200 μM); 3.1 ± 0.5 mg/g FW in the experiment on oregano clonal line 0-5 (line 0-5, A2C 100 μM, ± SD); “inhibited” in the experiment on oregano clonal line 0-5 (line 0-5, A2C 200 μM). In addition, the “RA Levels” value is listed as 6.4 ± 0.8 mg/g FW in the experiment with oregano clonal line 0-4 [3] (line 0-4, A2C 100 μM); 6.8 ± 0.7 mg/g FW with oregano clonal line 0-4 [3] (line 0-4, A2C 200 μM); 2.4 ± 0.5 mg/g FW with thyme clonal line M-3 (thyme M-3, A2C 100 μM, ± SD); “inhibited” in the experiment on thyme clonal line M-3 (thyme M-3, A2C 200 μM); 6.8 ± 1.1 mg/g FW in the experiment with rosemary clonal line R-7 (rosemary R-7, A2C 100 μM); 7.9 ± 2.0 mg/g FW in the experiment on rosemary clonal line R-7 (rosemary R-7, A2C 200 μM). The “RA Levels” value in experiment [6] (rosemary R-15, A2C 100 μM, ± SD) is 9.4 ± 0.6 mg/g FW; in [6] (rosemary R-15, A2C 200 μM), “inhibited”. For the same compound, the RA was 3.2 mg/g FW and 3.2 ± 0.4 mg/g FW in the experiment on oregano clonal line 0-5 (line 0-5, 100 μM A2C, 30 days, remaining tissue portions (primarily shoot tips) (Example 2), ± SD); 4.3 mg/g FW and 4.3 ± 0.7 mg/g FW with oregano clonal line 0-4 [3] (line 0-4, 100 μM A2C, day 30 (Example 2)). The “total phenolics vs control tissue” value in experiment [4] was “at least 2 fold”. Besides, in the experiment with oregano clonal line 0-4 [5], the morphological abnormalities entry is “no morphological abnormalities”.
